Patent publication US20190247353A1, “ACNE STRAIN-SELECTIVE ANTIBACTERIAL AGENT” (MOMOTANI JUNTENKAN CO., LTD., priority 2016, published 2019)
In brackets after ≈: the same amount, converted by molar mass. Like-named read-outs stand apart in the source and are kept apart here.

Legend:
Assay type in all cases: cell-based, Propionibacterium acnes
[1] = system: HL053PA1 strain (RT4); experiment: MIC by broth microdilution method, HL053PA1 strain; details: for MIC: Cutibacterium acnes, read-out: MIC against acne bacterium strain HL053PA1 strain (RT4)
Protocol: (§1) An MIC is measured herein according to the broth microdilution method which is the standard method of Japanese Society of Chemotherapy.
(§2) The antibacterial activity of a test substance was determined based on the minimum inhibitory concentration (MIC). An MIC was measured according to the broth microdilution method which is the standard method of Japanese Society of Chemotherapy.
(§3) One-loopful of each acne bacterium strain listed in Table 1 was scraped off and inoculated into 5 mL of a GAM broth slant agar medium (pH 7.0, Nissui Pharmaceutical Co., Ltd.).
(§4) The inoculated acne bacterium strain was precultured at 37° C. in a nitrogen atmosphere (anaerobic condition) for 48 hours. The precultured microbial cells were diluted in a modified GAM broth liquid medium (pH 6.0) to a concentration of 5.0×10^4 cfu/mL (viable cell count per OD660=1 is 2.0×10^9 cfu/mL), to prepare strain suspensions.
(§5) Each fatty acid (Tokyo Chemical Industry Co., Ltd.) listed in Table 2 was dissolved in dimethylsulfoxide (DMSO) as a solvent such that the concentration became 10,000 μg/mL, and used as a test substance.
(§6) Each of strain suspensions (5.0×10^4 cfu/mL) was aliquoted in a 96-well round bottom microplate, each of the test substance (fatty acid concentration 10,000 μg/mL) was added at a 1/10 volume to the aliquot and mixed to prepare measurement samples (fatty acid concentration: 1,000 μg/mL). Measurement samples in 2-fold dilution series were prepared using the strain suspension (fatty acid concentration from 0.48 to 1,000 μg/mL).
(§7) […] The presence or absence of a precipitation of test microbial cells after the incubation was examined and the minimum concentration at which the precipitation of microbial cells […] was regarded as the MIC (μg/mL) of the test substance against the acne bacterium strain.

[2] = system: HL053PA1 strain (RT4) and HL043PA1 strain (RT5) versus HL110PA3 strain (RT6); experiment: Strain-selective antibacterial activity (average of MICRT6/MICRT4 and MICRT6/MICRT5); details: for Strain-selective antibacterial activity over the tested pH range, in words: tested pH range pH 5 to 7
Text: Herein, “acne strain-selective antibacterial activity” or “strain-selective antibacterial activity” means an index indicating better inhibition of growth of a dominant strain in acne patients compared to that of a dominant strain in healthy subjects. It is expressed by the average value of the values (MICRT6/MICRT4, and MICRT6/MICRTS) obtained by dividing the minimum inhibitory concentration (MIC) of an object substance with respect to the dominant strain in healthy subjects (RT6 strain) (MICRT6) respectively by the MIC of the object substance with respect to the dominant strain in acne patients (RT4 strain) (MICRT4), and by the MIC of the object substance with respect to the dominant strain in acne patients (RT5 strain) (MICRT5).
The strain-selective antibacterial activity of each test substance (Table 2, right-most column) was evaluated based on the following rating criteria (Table 3). When the strain-selective antibacterial activity is indicated by a numerical range, the rating was based on the minimum value thereof.

[3] = system: HL043PA1 strain (RT5); experiment: MIC by broth microdilution method, HL043PA1 strain; details: for MIC: Cutibacterium acnes, read-out: MIC against acne bacterium strain HL043PA1 strain (RT5)
Protocol: as §1, §2, §3
The inoculated acne bacterium strain was precultured at 37° C. in a nitrogen atmosphere (anaerobic condition) for 48 hours. […]
as §5, §6
(§8) The measurement samples were incubated under an anaerobic condition at 37° C. for 2 days. The presence or absence of a precipitation of test microbial cells after the incubation was examined and the minimum concentration at which the precipitation of microbial cells […] was regarded as the MIC (μg/mL) of the test substance against the acne bacterium strain.

[4] = system: HL045PA1 strain (RT4); experiment: MIC by broth microdilution method, HL045PA1 strain; details: Cutibacterium acnes, PA1; Example 6, method as Example 1; read-out: MIC against acne bacterium strain HL045 PA1 strain (RT4)
Protocol: as §2
(§9) Each of strain suspensions (5.0×10^4 cfu/mL) was aliquoted in a 96-well round bottom microplate, each of the test substance (fatty acid concentration 10,000 μg/mL) was added at a 1/10 volume to the aliquot and mixed to prepare measurement samples (fatty acid concentration: 1,000 μg/mL). Measurement samples in 2-fold dilution series were prepared using the strain suspension (fatty acid concentration from 0.48 to 1,000 μg/mL). Using a sample containing only the solvent (DMSO) as a control, it was confirmed that the influence of the solvent on the growth of each strain could be neglected.
as §8
(§10) The MIC of each of the following test substances was measured substantially in the same manner as in Example 1 (Table 12) except that a suspension of test bacterium strains was prepared using the dominant strain in acne patients (HL005PA1 strain (HM-492^†, RT4 strain), […] (HM-524^†, RT4 strain), HL045PA1 strain (HM-516^†, RT4 strain), or HL043PA2 strain (HM-514^†, RT5 strain)), or the dominant strain in healthy subjects (HL110PA4 strain (HM-555^†, RT6 strain) instead of the dominant strains in acne patients (HL053PA1 strain (RT4 strain) and HL043PA1 strain (RT5 strain)) and the dominant strain in healthy subjects (HL110PA3 strain (RT6 strain) used in Examples 1 to 3.

[5] = system: HL056PA1 strain (RT4); experiment: MIC by broth microdilution method, HL056PA1 strain; details: Cutibacterium acnes, PA1; Example 6, method as Example 1; read-out: MIC against acne bacterium strain HL056 PA1 strain (RT4)
Protocol: as §2, §9, §8, §10

[6] = system: HL110PA3 strain (RT6); experiment: MIC by broth microdilution method, HL110PA3 strain; details: Cutibacterium acnes, read-out: MIC against acne bacterium strain HL110PA3 strain (RT6)
Protocol: as §1, §2, §3, §4, §5, §6, §7

[7] = system: HL043PA2 strain (RT5); experiment: MIC by broth microdilution method, HL043PA2 strain; details: Cutibacterium acnes; Example 6, method as Example 1; read-out: MIC against acne bacterium strain HL043 PA2 strain (RT5)
Protocol: as §2, §9, §8, §10

[8] = 48 h, pH 6.0 modified GAM broth, anaerobic, 37° C., 2 days (Example 1)
[9] = 72 h, pH 5.0, estimated from the growth on day 3
[10] = pH 5.0, estimated from the growth on day 3
[11] = 72 h, pH 5.5, estimated from the growth on day 3
[12] = 96 h, pH 5.0, estimated from the growth on day 4

Row | MIC [1, 8] | MIC [1, 9] | MIC ([1]; pH 5.5) | MIC ([1]; pH 6.5) | MIC ([1]; pH 7.0) | MIC [3, 8] | MIC [3, 9] | MIC ([3]; pH 5.5) | MIC ([3]; pH 6.5) | MIC ([3]; pH 7.0) | MIC [4] | MIC [5] | SMILES | Strain-selective antibacterial activity ([2]; pH 5.5) | Strain-selective antibacterial activity at each pH ([2]; pH 5.5 (summary Table 10)) | Strain-selective antibacterial activity ([2]; pH 6.0 (Example 1)) | Strain-selective antibacterial activity at each pH ([2]; pH 6 (summary Table 10)) | Strain-selective antibacterial activity ([2]; pH 6.5) | Strain-selective antibacterial activity at each pH ([2]; pH 6.5 (summary Table 10)) | Strain-selective antibacterial activity ([2]; pH 7.0) | Strain-selective antibacterial activity at each pH ([2]; pH 7 (summary Table 10)) | also measured
1 | 7.81 µg/mL (≈ 28.9 µM) | > 1000 µg/mL | 15.6 µg/mL (≈ 57.7 µM) | 31.3 µg/mL (≈ 116 µM) | 62.5 µg/mL (≈ 231 µM) | 7.81 µg/mL (≈ 28.9 µM) | > 1000 µg/mL | 15.6 µg/mL (≈ 57.7 µM) | 3.9 µg/mL (≈ 14.4 µM) | 7.8 µg/mL (≈ 28.8 µM) | 125 µg/mL (≈ 462 µM) | 250 µg/mL (≈ 924 µM) | CCCCCCCCCCCCCCCCC(=O)O [Heptadecanoic acid (C17:0), Heptadecanoic acid] | >64 | >64 | >130 | >130 | >140 | >140 | 72 | 72 | MIC against acne bacterium strain HL053PA1 strain (RT4) [1, 10]: >1000 µg/mL; Strain-selective antibacterial activity over the tested pH range, in words [2]: maintained a high strain-selective antibacterial activity between pH 5.5 and pH 7; MIC against acne bacterium strain HL043PA1 strain (RT5) [3, 10]: >1000 µg/mL; MIC [6, 8]: > 1000 µg/mL; MIC [6, 11]: > 1000 µg/mL; MIC [6, 12]: > 1000 µg/mL; MIC ([6]; pH 6.5): > 1000 µg/mL; MIC ([6]; pH 7.0): 1000 µg/mL (≈ 3700 µM); MIC [7]: 62.5 µg/mL (≈ 231 µM)
2 | 15.6 µg/mL (≈ 68.3 µM) | 15.6 µg/mL (≈ 68.3 µM) | 15.6 µg/mL (≈ 68.3 µM) | 125 µg/mL (≈ 547 µM) | 250 µg/mL (≈ 1090 µM) | 15.6 µg/mL (≈ 68.3 µM) | 31.3 µg/mL (≈ 137 µM) | 15.6 µg/mL (≈ 68.3 µM) | 31.3 µg/mL (≈ 137 µM) | 250 µg/mL (≈ 1090 µM) | 31.3 µg/mL (≈ 137 µM) | 125 µg/mL (≈ 547 µM) | CCCCCCCCCCCCCC(=O)O [Myristic acid (C14:0), Myristic acid] | >64 | >64 | 16 | 16 | >5.0 | >5.0 | 2.0 | 2.0 | Strain-selective antibacterial activity ([2]; pH 5.0): >48; Strain-selective antibacterial activity at each pH ([2]; pH 5 (summary Table 10)): >48; MIC [6, 8]: 250 µg/mL (≈ 1090 µM); MIC [6, 11]: > 1000 µg/mL; MIC [6, 12]: > 1000 µg/mL; MIC ([6]; pH 6.5): 250 µg/mL (≈ 1090 µM); MIC ([6]; pH 7.0): 500 µg/mL (≈ 2190 µM); MIC [7]: 15.6 µg/mL (≈ 68.3 µM)
3 | 7.81 µg/mL (≈ 30.5 µM) | > 1000 µg/mL | 62.5 µg/mL (≈ 244 µM) | 125 µg/mL (≈ 487 µM) | 62.5 µg/mL (≈ 244 µM) | 7.81 µg/mL (≈ 30.5 µM) | > 1000 µg/mL | 62.5 µg/mL (≈ 244 µM) | 3.9 µg/mL (≈ 15.2 µM) | 15.6 µg/mL (≈ 60.8 µM) | 250 µg/mL (≈ 975 µM) | 500 µg/mL (≈ 1950 µM) | CCCCCCCCCCCCCCCC(=O)O [Palmitic acid (C16:0), Palmitic acid] | >16 | >16 | >130 | >130 | >130 | >130 | 40 | 40 | MIC against acne bacterium strain HL053PA1 strain (RT4) [1, 10]: >1000 µg/mL; MIC against acne bacterium strain HL043PA1 strain (RT5) [3, 10]: >1000 µg/mL; MIC [6, 8]: > 1000 µg/mL; MIC [6, 11]: > 1000 µg/mL; MIC [6, 12]: > 1000 µg/mL; MIC ([6]; pH 6.5): > 1000 µg/mL; MIC ([6]; pH 7.0): 1000 µg/mL (≈ 3900 µM); MIC [7]: 62.5 µg/mL (≈ 244 µM)
4 | 1.95 µg/mL (≈ 8.04 µM) | 7.81 µg/mL (≈ 32.2 µM) | 3.9 µg/mL (≈ 16.1 µM) | 3.9 µg/mL (≈ 16.1 µM) | 3.9 µg/mL (≈ 16.1 µM) | 1.95 µg/mL (≈ 8.04 µM) | 15.6 µg/mL (≈ 64.4 µM) | 3.9 µg/mL (≈ 16.1 µM) | 1.95 µg/mL (≈ 8.04 µM) | 3.9 µg/mL (≈ 16.1 µM) | 3.9 µg/mL (≈ 16.1 µM) | 3.9 µg/mL (≈ 16.1 µM) | CCCCCCCCCCCCCCC(=O)O [Pentadecanoic acid (C15:0), Pentadecanoic acid] | >260 | >260 | 130 | 130 | >96 | >96 | 260 | 260 | Strain-selective antibacterial activity ([2]; pH 5.0): >96; Strain-selective antibacterial activity at each pH ([2]; pH 5 (summary Table 10)): >96; Strain-selective antibacterial activity over the tested pH range, in words [2]: maintained a high strain-selective antibacterial activity over the entire pH range tested (pH 5 to 7); MIC [6, 8]: 250 µg/mL (≈ 1030 µM); MIC [6, 11]: > 1000 µg/mL; MIC [6, 12]: > 1000 µg/mL; MIC ([6]; pH 6.5): 250 µg/mL (≈ 1030 µM); MIC ([6]; pH 7.0): 1000 µg/mL (≈ 4130 µM); MIC [7]: 3.9 µg/mL (≈ 16.1 µM)
